Measured values: patent publication US12509431B2, “1,4-dihydroquinazolinone compounds and uses thereof” (Edgewise Therapeutics, Inc., priority 2022, dated 2025)

Assays:
Type in all cases: biochemical
Conditions in all cases: Table 7
Porcine Atria myofibrils = test: Myofibril ATPase assay (PK/LDH NADH-coupled), atria myofibrils
How it was run: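 Porcine atrial myofibril ATPase followed via PK/LDH-coupled NADH depletion, absorbance at 340 nm read every 1.5-2 min over 75 min. Slopes (mAU/min) normalized to vehicle as 100% and fit to a 4-parameter logistic; EC25% derived, plus EC50% for inhibitors.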

[1] = tested on: Rabbit Skeletal myofibrils (rabbit psoas muscle); test: Myofibril ATPase assay (PK/LDH NADH-coupled), skeletal myofibrils
How it was run: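 Rabbit psoas myofibrils in pCa (PIPES/CaCl2/EGTA, pH 7.0) buffer; ADP coupled via PK/LDH to NADH loss, read at 340 nm every 1.5–2 min for 75 min. Slopes normalized to vehicle (100%) and fit to 4-parameter logistic for EC25, plus EC50 for inhibitors.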

[2] = target: T1, Porcine Ventricle myofibrils (left ventricle of Yucatan minipigs) (Sus scrofa, UniProt P79293); test: Myofibril ATPase assay (PK/LDH NADH-coupled), ventricle myofibrils
T1 construct: Myofibrils from porcine cardiac muscle was isolated from the left ventricle of Yucatan minipigs; tissue Exemplar Genetics; host or cells: left ventricle of Yucatan minipigs
T1 sequence (P79293 whole entry): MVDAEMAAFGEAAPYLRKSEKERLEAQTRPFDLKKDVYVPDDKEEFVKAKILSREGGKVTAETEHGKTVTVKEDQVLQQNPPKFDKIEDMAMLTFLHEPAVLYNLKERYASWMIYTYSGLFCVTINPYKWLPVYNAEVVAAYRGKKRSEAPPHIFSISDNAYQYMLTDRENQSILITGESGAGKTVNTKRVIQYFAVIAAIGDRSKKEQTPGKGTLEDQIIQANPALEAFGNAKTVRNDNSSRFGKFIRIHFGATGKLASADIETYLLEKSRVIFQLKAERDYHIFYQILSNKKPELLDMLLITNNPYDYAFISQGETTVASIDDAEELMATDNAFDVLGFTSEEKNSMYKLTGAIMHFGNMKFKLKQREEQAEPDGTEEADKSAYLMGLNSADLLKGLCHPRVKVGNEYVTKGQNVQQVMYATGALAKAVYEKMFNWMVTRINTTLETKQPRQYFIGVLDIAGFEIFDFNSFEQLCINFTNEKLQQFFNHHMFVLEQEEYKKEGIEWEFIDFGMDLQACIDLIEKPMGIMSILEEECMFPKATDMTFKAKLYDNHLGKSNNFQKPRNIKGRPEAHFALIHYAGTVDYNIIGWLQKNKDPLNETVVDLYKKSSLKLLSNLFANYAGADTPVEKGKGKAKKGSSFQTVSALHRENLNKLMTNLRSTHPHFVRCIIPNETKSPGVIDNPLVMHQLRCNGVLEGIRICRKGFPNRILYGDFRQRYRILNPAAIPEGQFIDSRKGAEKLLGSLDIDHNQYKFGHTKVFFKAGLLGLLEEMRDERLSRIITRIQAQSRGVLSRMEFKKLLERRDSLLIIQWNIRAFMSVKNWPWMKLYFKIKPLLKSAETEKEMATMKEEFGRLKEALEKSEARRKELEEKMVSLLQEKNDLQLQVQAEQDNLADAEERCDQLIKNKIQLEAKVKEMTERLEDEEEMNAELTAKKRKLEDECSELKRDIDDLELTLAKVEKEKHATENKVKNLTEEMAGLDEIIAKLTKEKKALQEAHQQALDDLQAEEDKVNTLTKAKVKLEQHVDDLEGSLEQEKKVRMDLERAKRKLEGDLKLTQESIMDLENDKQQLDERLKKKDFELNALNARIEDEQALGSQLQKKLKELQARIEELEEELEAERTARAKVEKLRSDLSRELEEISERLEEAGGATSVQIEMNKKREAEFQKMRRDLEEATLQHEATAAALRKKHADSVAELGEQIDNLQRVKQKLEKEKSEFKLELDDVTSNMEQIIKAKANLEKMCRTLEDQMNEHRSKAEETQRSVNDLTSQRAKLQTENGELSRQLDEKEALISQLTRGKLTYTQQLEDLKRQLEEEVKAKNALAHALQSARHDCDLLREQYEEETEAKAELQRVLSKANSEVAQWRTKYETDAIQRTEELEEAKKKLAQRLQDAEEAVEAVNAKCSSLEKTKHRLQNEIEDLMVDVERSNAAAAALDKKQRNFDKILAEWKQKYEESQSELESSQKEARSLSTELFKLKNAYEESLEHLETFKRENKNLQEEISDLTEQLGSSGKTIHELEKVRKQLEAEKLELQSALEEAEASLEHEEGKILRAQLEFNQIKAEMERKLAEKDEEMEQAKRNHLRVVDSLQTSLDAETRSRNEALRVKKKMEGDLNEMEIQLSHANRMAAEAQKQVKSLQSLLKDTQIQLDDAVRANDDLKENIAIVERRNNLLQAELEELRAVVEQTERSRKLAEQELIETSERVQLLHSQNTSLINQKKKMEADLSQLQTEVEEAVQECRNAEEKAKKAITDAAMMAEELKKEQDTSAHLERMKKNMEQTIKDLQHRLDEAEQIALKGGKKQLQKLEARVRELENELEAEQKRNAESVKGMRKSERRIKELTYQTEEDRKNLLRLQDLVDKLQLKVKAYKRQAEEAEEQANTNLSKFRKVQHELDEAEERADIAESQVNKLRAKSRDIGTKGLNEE
How it was run: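 Yucatan minipig left-ventricle myofibrils; ATPase measured by PK/LDH-coupled NADH loss at 340 nm, read every 1.5-2 min for 75 min. Slopes normalized to vehicle (100%) and fit to 4-parameter logistic model; EC25 and, for inhibitors, EC50 calculated.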

Porcine Atria IC25 (Porcine Atria myofibrils) [µM]	Rabbit Psoas IC25 [1] [µM]	Porcine Ventricle IC25 [2] [µM]	Structure (SMILES)
0.03	0.0571	0.1682	COc1ccc2c(n1)C1(CC1)N(CC(=O)N[C@@H](C)c1ccc(F)cc1F)C(=O)N2 [Compound N87, N-[(1S)-1-(2,4-Difluorophenyl)ethyl]-2-{6′-methoxy-2′-oxo-1′H-spiro[cyclopropane-1,4′-pyrido[3,2-d]pyrimidin]-3′-yl}acetamide]
0.13	0.1726	0.7484	C[C@H](NC(=O)CN1C(=O)Nc2cccnc2C12CC2)c1ccc(F)cc1F [Compound N88]
100.00	100	100	CC(C)C[C@@H](C(=O)N[C@@H](C)c1ccc(F)cc1F)N1Cc2nc(F)ccc2NC1=O [Compound N89]
100.00	49.64	100	CC(C)C[C@H](C(=O)N[C@@H](C)c1ccc(F)cc1F)N1Cc2nc(F)ccc2NC1=O [Compound N90]
56.88	17.09	100	Cc1ncc2c(n1)CN(CC(=O)N[C@@H](C)c1ccc(F)cc1F)C(=O)N2 [Compound N91]
100.00	100	100	C[C@H](NC(=O)[C@H](C)N1Cc2nc(F)ccc2NC1=O)c1ccccc1F [Compound N92]
1.66	100	100	C[C@H](NC(=O)[C@@H](C)N1Cc2nc(F)ccc2NC1=O)c1ccccc1F [Compound N93]
0.22	0.0739	0.4952	C[C@H](NC(=O)[C@H](C)N1Cc2c(ccnc2Br)NC1=O)c1ccc(F)cc1F [Compound N94]
3.69	0.9565	5.968	C[C@H](NC(=O)[C@@H](C)N1Cc2c(ccnc2Br)NC1=O)c1ccc(F)cc1F [Compound N95]
100.00	100	100	C[C@H](NC(=O)[C@H](Cc1ccccc1)N1Cc2nc(F)ccc2NC1=O)c1ccc(F)cc1F [Compound N96]
100.00	90.25	100	C[C@H](NC(=O)[C@@H](Cc1ccccc1)N1Cc2nc(F)ccc2NC1=O)c1ccc(F)cc1F [Compound N97]
0.36	8.57	71.64	C[C@H](NC(=O)[C@H](C)N1Cc2nc(F)ccc2NC1=O)c1ccc(F)cc1 [Compound N98]
8.28	100	100	C[C@H](NC(=O)[C@@H](C)N1Cc2nc(F)ccc2NC1=O)c1ccc(F)cc1 [Compound N99]
100.00	9.48	100	O=C(CN1Cc2c(ccnc2Cl)NC1=O)N[C@@H](c1ccc(F)cc1F)C(F)(F)F [Compound N100]
0.27	0.1554	1.94	O=C(CN1Cc2c(ccnc2Cl)NC1=O)N[C@H](c1ccc(F)cc1F)C(F)(F)F [Compound N101]
0.16	1.03	9.96	C[C@H](NC(=O)CN1Cc2nc(Br)ccc2NC1=O)c1ccc(F)cc1F [Compound N103]
0.16	0.1699	4.155	C[C@@H](NC(=O)CN1Cc2nc(F)ccc2NC1=O)c1ncc(F)cc1F [Compound N104, N-[(1R)-1-(3,5-Difluoropyridin-2-yl)ethyl]-2-[6-fluoro-2-oxo-1H,4H-pyrido[3,2-d]pyrimidin-3-yl]acetamide]

More lines, now with the values behind:

Structure (SMILES)	Porcine Atria IC25 (Porcine Atria myofibrils) [µM]	Rabbit Psoas IC25 [1] [µM]	Porcine Ventricle IC25 [2] [µM]
C[C@H](NC(=O)CN1Cc2c(F)cncc2NC1=O)c1ncc(F)cc1F [Compound N64]	25.37	16.71	100
CC(NC(=O)CN1Cc2c(ccnc2C(N)=O)NC1=O)c1ncc(F)cc1F (stereo not drawn) [Compound N65]	100.00	100	100
C[C@H](NC(=O)CN1Cc2c(ccnc2OC2COC2)NC1=O)c1ccc(F)cc1F [Compound N66]	29.35	0.3112	100
COc1ccc2c(n1)C1(CC1)N(CC(=O)N[C@H](C)c1ncc(F)cc1F)C(=O)N2 [Compound N67]	100.00	100	100
COc1ccc2c(n1)C1(CC1)N(CC(=O)N[C@@H](C)c1ncc(F)cc1F)C(=O)N2 [Compound N68]	0.13	0.0442	1.833
C[C@@H](NC(=O)CN1Cc2cc(F)cnc2NC1=O)c1ncc(F)cc1F [Compound N69]	100.00	100	100
C[C@H](NC(=O)CN1Cc2cc(F)cnc2NC1=O)c1ncc(F)cc1F [Compound N70]	100.00	100	100
C[C@H](NC(=O)CN1Cc2cc(F)cnc2NC1=O)c1ccc(F)cc1F [Compound N71, N-[(1S)-1-(2,4-Difluorophenyl)ethyl]-2-{6-fluoro-2-oxo-1H,4H-pyrido[2,3-d]pyrimidin-3-yl}acetamide]	36.26	2.804	100
C[C@H](NC(=O)CN1Cc2c(F)cncc2NC1=O)c1ccc(F)cc1F [Compound N72, N-[(1S)-1-(2,4-Difluorophenyl)ethyl]-2-{5-fluoro-2-oxo-1H,4H-pyrido[3,4-d]pyrimidin-3-yl}acetamide]	3.14	0.4483	39.96
C[C@@H](NC(=O)CN1Cc2c(ccnc2C(F)(F)F)NC1=O)c1ccc(C#N)cc1F [Compound N73]	100.00	35.6	100
C[C@H](NC(=O)CN1Cc2c(ccnc2C(F)(F)F)NC1=O)c1ccc(C#N)cc1F [Compound N74]	0.54	0.07565	1.559
C[C@@H](NC(=O)CN1Cc2cc(Cl)cnc2NC1=O)c1ncc(F)cc1F [Compound N75]	100.00	100	100
C[C@H](NC(=O)CN1Cc2cc(Cl)cnc2NC1=O)c1ncc(F)cc1F [Compound N76]	100.00	100	100
C[C@H](NC(=O)CN1C(=O)Nc2cccnc2[C@H]1C)c1ccc(F)cc1F [Compound N77, N—((S)-1-(2,4-difluorophenyl)ethyl)-2-((R)-4-methyl-2-oxo-1,4-dihydropyrido[3,2-d]pyrimidin-3(2H)-yl)acetamide]	2.11	2.441	24.08
C[C@H](NC(=O)CN1C(=O)Nc2cccnc2[C@@H]1C)c1ccc(F)cc1F [Compound N78, N—((S)-1-(2,4-difluorophenyl)ethyl)-2-((S)-4-methyl-2-oxo-1,4-dihydropyrido [3,2-d]pyrimidin-3(2H)-yl)acetamide]	26.68	11.14	31.94
C[C@@H](NC(=O)CN1Cc2c(ccnc2C(F)(F)F)NC1=O)c1ncc(F)cc1F [Compound N79]	100.00	100	100
C[C@H](NC(=O)CN1Cc2c(ccnc2C(F)(F)F)NC1=O)c1ncc(F)cc1F [Compound N80]	8.03	4.79	100
C[C@H](NC(=O)CN1Cc2c(ccnc2C#N)NC1=O)c1ccc(F)cc1F [Compound N81]	0.24	0.04549	0.545
C[C@H](NC(=O)CN1Cc2cc(Cl)cnc2NC1=O)c1ccc(F)cc1F [Compound N82]	100.00	100	100
C[C@H](NC(=O)[C@H](C)N1Cc2ncccc2NC1=O)c1ccc(F)cc1F [Compound N83]	0.74	1.802	100
C[C@H](NC(=O)[C@@H](C)N1Cc2ncccc2NC1=O)c1ccc(F)cc1F [Compound N84]	3.69	10.25	100
C[C@H](NC(=O)CN1C(=O)Nc2ccncc2[C@H]1C)c1ccc(F)cc1F [Compound N85]	18.87	4.254	100
C[C@H](NC(=O)CN1C(=O)Nc2ccncc2[C@@H]1C)c1ccc(F)cc1F [Compound N86]	30.96	10.83	100
